Experimental findings from patent publication US20230414514A1, “FORMULATION TO DETER ABUSE OF DRUGS BY SMOKING” (Purdue Research Foundation, priority 2022, published 2023) are described below.

The series in a line: Thermogravimetric analysis (TGA), thermal stability / decomposition. The class given is physicochemical. The settings on record: as stated in the description, conditions not given. The protocol: Samples of 8.0-18.2 mg were placed in platinum TGA sample pans (CS Ceramic) and heated from room temperature to 700° C. at 20° C./min in a furnace under either inert (nitrogen) or oxidizing (air) atmosphere. The experiments were performed in triplicates (n=3) or quintuplicates (n=5). The data were exported and the TGA curves were analysed using TA Universal Analysis Software (Universal Analysis 2000 Version 4.5A, TA Instruments-Waters LLC, New Castle, DE) to determine onset degradation temperatures (Ton,degradation) and weight percent losses of the materials used in this study over the temperature intervals of interest. The values were averaged and reported as mean±standard deviation.
FIG. 3A and FIG. 3B show the TGA profiles for PLA and PCL respectively. […] The mean Ton,degradation of PLA was 278.8±3.8° C., with the average weight percent loss of 98.6±0.3% (n=3) during the decomposition step. The mean Ton,degradation of PCL was 353.1±1.7° C., and the weight percent loss averaged 97.9±1.1% (n=3).
PLA-PCL MS with a 1:9 polymer ratio lost 12.3±0.8% weight (n=3) during the first decomposition step, and 84.7±0.6% weight (n=3) during the second step. The mean weight percent loss for the PLA-PCL MS with a 5:5 ratio of PLA to PCL was 56.5±0.9% (n=3) and 38.4±1.1% (n=3) during the first and second thermal degradation steps. […]

`COC1=CC=C2[C@H]3Cc4ccc(OC)c5c4[C@@]2(CCN3C)[C@H]1O5` [THB, Thebaine]: the thermal decomposition temperature entry is “about 183 °C”.
